In patent US12351829B2, “Generation, proliferation and expansion of epithelial cells from primary tissue into mucosoid cultures” (Max-Planck-Gesellschaft zur Förderung der Wissenschaften …, priority 2018, dated 2025):

Assays:
[1] = tested on: parietal cells in corpus-stomach mucosoid culture; settings: BMP4-induced corpus mucosoid culture; 10 μl of 5 mM Histamin solution
Procedure: Specific signals are needed to drive the parietal cell lineages and in particular the activation of BMP4 and the suppression MEK/MAPK pathway.
Three corpus samples were taken at passage 4 in ALI and grown for 13 days in regular medium following by 2 weeks treatment with 50 ng/ml of BMP4 and removal of Noggin and EGF. The Corpus-gEPMs on filters were pre-incubated with […] Acridine Orange for 15 min. The filter was cut out of the insert and mounted with the cells facing the glass on a IBIDI chamber with 400 μl of media (the same with AO). A coverslip was put on top. Images were taken with 25× (Glycerol) for 10 min to stabilize the filter and avoid movements. A solution of 10 μl of 5 mM Histamin in medium was applied on the border of the coverslip while imaging. Fluorescence of acridine orange was excited at 488 nm (3-4%) and images were collected in a time series (10sec) at 500-550 nm and 600-650.

[2] = tested on: IL-8 expression in gastric-antrum mucosoid cultures; experiment: Pro-inflammatory stimulation of gastric-antrum mucosoid cultures, IL-8 qPCR; assay type: cell-based, human; settings: 10 μg/ml TNF-α or 5 μg/ml IL-1β for 3 days; +W+R and −W−R cultures
Procedure: Filters were cut out of the insert and directly transferred to a tube containing 1 ml Trizol (Thermo). After vortexing samples were incubated for 10 min at RT, vortexed again and frozen at −80° C. for long-term storage. 500 μl of chloroform was added to thawed samples before vortexing, incubation for 2 min at RT and centrifugation for 15 min at 4° C. The aqueous phase was mixed with isopropanol, inverted 6× and incubated for 10 min at RT. The sample was transferred to a total RNA isolation Kit column (Thermo) and processed according to the manufacturer's instructions. Total RNA was measured using a NanoDrop and reverse transcription carried out using the Tetro cDNA synthesis Kit (Bioline). DNA was extracted using AllPrep DNA/RNA Mini Kit (Qiagen) according to the manufacturer's instructions; Total DNA was measured using a NanoDrop. qPCR (Step One, Applied Biosystem) was performed using the SensiMix™ SYBR® hi-ROX Kit (Bioline, 3-step cycling according to the manufacturer).
FIG. 16. Antral mucosoid cultures derived from 3 different patients were cultivated for 13 days. Parallel samples were differentiated by excluding Wnt3A and RSPO1 from the culture for 5 days (A)(B) treatment with 10 μg/ml TNF-α or 5 μg/ml IL-1Iβ for 3 days. Expression of IL-8 was analysed by qPCR and normalized to untreated control cells in +W+R medium. ns: not significant; *p<0.005, unpaired t-test. […]

[3] = tested on: ATP4B+ parietal cells in gastric-corpus derived mucosoid cultures; experiment: BMP4-induced parietal cell differentiation in corpus-stomach mucosoid culture (ATP4B IF); assay type: cell-based, human; settings: 50 ng/ml BMP4 for two weeks, absence of Noggin and EGF; untreated 0,4%

In the case of `NCCc1c[nH]cn1` [histamine], the “acid production (acridine orange changes to orange)” value [1] is reported as “able to produce acid”.

“IL1-β: recombinant pro-inflammatory cytokine” was tested, and the “IL-8 expression (qPCR)” value [2] was “induced IL-8 preferentially in +W+R cultures”.

TNF-α was tested, and the “IL-8 expression (qPCR)” value [2] was “induced IL-8 expression regardless of W/R”.

B1: BMP4: BMP pathway activator provided at 50 ng/ml to drive parietal cell lineage (protein, UniProt P12644 293-408, looked up)
Bone morphogenetic protein 4: SPKHHSQRARKKNKNCRRHSLYVDFSDVGWNDWIVAPPGYQAFYCHGDCPFPLADHLNSTNHAIVQTLVNSVNSSIPKACCVPTELSAISMLYLDEYDKVVLKNYQEMVVEGCGCR
In the case of B1, the “ATP4B+ parietal cells” value [3] is reported as 2,4%.
